Data as given in patent US20220233469A1, “METHODS, COMPOSITIONS AND DEVICES FOR TREATING NEUROINFLAMMATORY CONDITIONS” (ALYRA BIOTECH PTY LTD, priority 2019, published 2022).
Entries after “also recorded” stand apart in the source; their conditions may differ.

How the values were obtained:
HEK293/Null1 = assay: TLR-/NLR- control cell line HEK293/Null1 stimulated with TNFa; assay type: cell-based, human; details: stimulated with TNFa at 10 ng/mL
Method: (§1) Toll-Like Receptor (TLR), NOD-Like Receptor (NLR) and C-Type Lectin Receptor (CLR) stimulation were tested by assessing NF-κB activation in HEK293 cells expressing a given TLR, NLR or CLR. The activity of the test articles was tested at one concentration and compared to control ligands. These steps were performed in triplicate. In a 96-well plate (200 μL total volume) containing the appropriate cells (50,000-75,000 cells/well), 20 μL of the test article or the positive control ligand was added to the wells. For the antagonist assay, the test article was incubated with the cells, at 37° C. with 5% CO2, for 30 minutes prior to the addition of the positive control ligand to the wells. The media added to the wells was designed for the detection of NF-κB induced SEAP expression. After a 16-24 hr incubation the optical density (OD) was read at 650 nm on a Molecular Devices SpectraMax 340PC absorbance detector.

HEK293/Null2 = assay: TLR-/NLR- control cell line HEK293/Null2 stimulated with TNFa; assay type: cell-based, human; details: stimulated with TNFa at 10 ng/mL
Method: as §1

HEK293/Null = assay: RIG-I-/MDA-5- control cell line HEK293/Null stimulated with hIFNα; assay type: cell-based, human; details: stimulated with recombinant hIFNα at 100 IU/mL
Method: RIG-I and MDA-5 stimulation were tested by assessing IRF3 activation in HEK293 cells expressing human RIG-I or MDA-5 genes. The activity of the test articles was tested on human RIG-I and MDA-5 expressing cells as a potential agonist or antagonist. The test articles were evaluated at one concentration and compared to control ligands. This step was performed in triplicate. The results are provided as Relative Luminescence Units (RLUs).
RIG-I^−/MDA-5^− Cell Lines: HEK293/Null: Control for human RIG-I and MDA-5 Poly(I:C)HMW/LyoVec at 1 μg/mL. Antagonist: 500 ng/mL 5′ppp-dsRNA/LyoVec at 1 μg/mL. Antagonist: 500 ng/mL hIFNα at 1000 IU/mL. Antagonist: 100 IU/mL.
In a 96-well plate (200 μL total volume) containing the appropriate cells (25,000-50,000 cells/well), 20 μL of the test article or of the positive control ligand was added to the wells. For the antagonist assay, the test article was incubated with the cells, at 37° C. with 5% CO2, for 30 minutes prior to the addition of the positive control ligand to the wells. After 20 hour incubation, activation of the IRF pathway was monitored using a luciferase detection assay. Luciferase activity was assayed in triplicate from the supernatant of the induced cells, and the relative luminescence units (RLUs) are detected by a Promega GloMax Luminometer.

dorsal horn astrocytes = assay: Activation of dorsal horn astrocytes (GFAP immunofluorescence) after intrauterine LPS in mice; assay type: in vivo, mouse; details: for LPS-induced activation of spinal astrocytes (GFAP staining, dorsal horn): intrauterine, given with LPS (100 ug/kg) once per estrus cycle over three cycles, Amitriptyline 28 ug/kg, TAK-242 36 ug/kg; for integrated density of GFAP staining (activated astrocytes within the dorsal horn): level of T12, intrauterine LPS with Amitriptyline or TAK-242 vs LPS, p=0.0002
Description: (§2) We first recognised that neuroinflammatory conditions of the nervous system may be, at least in part, due to activation of the innate immune system within the uterus resulting in activation of glial cells in the dorsal horn of the spinal cord. To model this in mice, a study was undertaken administering LPS (lipopolysaccharide), a potent immune activator, to the uterus of mice once per estrus cycle over three cycles.
(§3) Studies were also undertaken to investigate whether a small dose of amitriptyline, an inhibitor of the pattern recognition receptors TLR, NOD, CLR, RIG-1 and MDA-5, administered with LPS within the uterus could prevent LPS-induced activation of spinal glial cells. To confirm that the amitriptyline was acting, at least in part, by blocking TLRs, an investigation was also conducted on mice given a small dose of pure TLR4 blocker-TAK-242—with LPS.
(§4) The Nonsurgical Embryo Transfer Device (Paratech, USA) was used to allow insertion of fluid into the uterus with brief, mild discomfort to the mouse, and no need for anaesthesia. Following three estrus cycles, glial activation in the dorsal horn of the spinal cord was measured using immunofluorescence. Activation of dorsal horn astrocytes was assessed using GFAP. Activation of dorsal horn microglia was assessed using Iba1. We compared the activation of spinal glia in mice with intrauterine administration of saline only, saline and LPS (100 ug/kg), saline LPS (100 ug/kg) and Amitriptyline (28 ug/kg), and saline LPS (100 ug/kg) and TAK-242 (36 ug/kg).
(§5) The spinal cord was assessed using immunohistochemistry techniques across levels T10, T11, T12, T13, L1, L2, L3, L4, L5, L6, S1 and S2 where T represents the thoracic segment of the spinal cord, L represents the lumbar segment of the spinal cord and S represents the sacral segment of the spinal cord. The regions of interest in the dorsal horn include Laminae I, II, III and IV. Changes in spinal glial reactivity are causally linked to all known models of neuroinflammatory medical conditions.

dorsal horn microglia = assay: Activation of dorsal horn microglia (Iba1 immunofluorescence) after intrauterine LPS in mice; assay type: in vivo, mouse; details: for LPS-induced activation of spinal microglia (Iba1 staining, dorsal horn): intrauterine, given with LPS (100 ug/kg) once per estrus cycle over three cycles, Amitriptyline 28 ug/kg, TAK-242 36 ug/kg
Description: as §2, §3, §4, §5

spinal glial cells = assay: Spinal glial activation after intrauterine LPS in mice; assay type: in vivo, mouse; details: for LPS-induced spinal glial activation: intrauterine co-administration with LPS (100 ug/kg), Amitriptyline 28 ug/kg, TAK-242 36 ug/kg
Description: as §2, §3, §4, §5

[1] = Facial Grimace Score after intrauterine LPS in mice; assay type: in vivo, mouse; details: for Facial Grimace Score: mice, 24 hours following the final LPS stimulation
[2] = used orally in clinical practice; cited from earlier work
Human TLR7 = target: T1, Human TLR7 (Homo sapiens, UniProt Q9NYK1); assay: Human TLR antagonist screening: NF-κB activation in HEK293 cells, TLR7; assay type: cell-based; details: antagonist mode; test article 1 μM, +CL307 10 ng/ml; No Sample 13, Control- 1
T1 construct: expressed in transfected cells; host or cells: HEK293
T1 sequence (Q9NYK1 27-1049): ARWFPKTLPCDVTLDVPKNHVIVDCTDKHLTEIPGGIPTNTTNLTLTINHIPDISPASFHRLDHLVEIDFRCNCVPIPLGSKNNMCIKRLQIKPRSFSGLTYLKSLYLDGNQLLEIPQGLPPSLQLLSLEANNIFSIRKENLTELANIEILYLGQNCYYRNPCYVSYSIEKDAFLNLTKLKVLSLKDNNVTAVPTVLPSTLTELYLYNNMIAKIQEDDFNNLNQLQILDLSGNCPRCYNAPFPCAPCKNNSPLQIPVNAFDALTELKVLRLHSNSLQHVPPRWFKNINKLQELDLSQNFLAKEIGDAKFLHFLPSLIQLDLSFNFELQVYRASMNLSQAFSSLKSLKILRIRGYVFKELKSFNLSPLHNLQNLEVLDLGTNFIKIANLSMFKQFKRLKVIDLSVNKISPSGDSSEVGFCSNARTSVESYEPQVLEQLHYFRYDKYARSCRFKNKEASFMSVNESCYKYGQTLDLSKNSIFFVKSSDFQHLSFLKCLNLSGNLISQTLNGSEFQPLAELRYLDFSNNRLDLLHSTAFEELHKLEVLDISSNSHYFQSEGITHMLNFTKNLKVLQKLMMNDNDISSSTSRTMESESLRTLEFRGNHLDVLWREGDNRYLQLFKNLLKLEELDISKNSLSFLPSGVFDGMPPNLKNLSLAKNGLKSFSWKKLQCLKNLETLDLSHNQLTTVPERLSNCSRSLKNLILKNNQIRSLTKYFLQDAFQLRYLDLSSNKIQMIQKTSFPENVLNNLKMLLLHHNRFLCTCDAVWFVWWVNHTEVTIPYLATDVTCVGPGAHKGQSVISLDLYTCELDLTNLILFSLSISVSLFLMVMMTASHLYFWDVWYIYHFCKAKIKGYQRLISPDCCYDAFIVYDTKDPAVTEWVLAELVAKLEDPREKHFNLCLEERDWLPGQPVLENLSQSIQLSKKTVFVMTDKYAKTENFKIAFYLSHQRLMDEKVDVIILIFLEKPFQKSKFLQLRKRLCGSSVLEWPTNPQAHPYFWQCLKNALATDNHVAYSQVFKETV
Method: as §1, with “triplicate. […] CL307 at 1 μg/mL Antagonist: 10 ng/mL.” for “triplicate.”, “expression.” for “expression. After a 16-24 hr incubation the optical density (OD) was read at 650 nm on a Molecular Devices SpectraMax 340PC absorbance detector.”

[3] = intrauterine LPS with Amitriptyline or TAK242
[4] = intrauterine LPS (100 ug/kg) compared with saline

Molecule	effect on control cell line HEK293/Null1 (HEK293/Null1)	effect on control cell line HEK293/Null2 (HEK293/Null2)	LPS-induced activation of spinal astrocytes (GFAP staining, dorsal horn) (dorsal horn astrocytes)	integrated density of GFAP staining (activated astrocytes within the dorsal horn) (dorsal horn astrocytes)	LPS-induced activation of spinal microglia (Iba1 staining, dorsal horn) (dorsal horn microglia)	LPS-induced spinal glial activation (spinal glial cells)	Facial Grimace Score [1, 3]	also measured
CN(C)CCC=C1c2ccccc2CCc2ccccc21 [Amitriptyline]	slight inhibitory effect	slight inhibitory effect	blocks the impact of intrauterine LPS at multiple levels of the spinal cord and appears to reduce astrocytic reactivity to below basal levels	significantly reduce LPS effect	blocked the impact of intrauterine LPS at multiple levels of the spinal cord and reduced microglial reactivity to basal levels; also recorded: appears to reduce microglial reactivity to basal levels	showed additional activity reducing spinal glial activation above TAK-242 alone	reduced these scores	effect on control cell line HEK293/Null (HEK293/Null): inhibitory effect; LPS-induced activation of spinal astrocytes (GFAP staining, dorsal horn) (dorsal horn astrocytes; listed as amitriptyline): prevented LPS-induced activation of spinal astrocytes and microglia; also recorded: reduced spinal activation of astrocytes below baseline levels; also recorded: blocked the impact of intrauterine LPS at multiple levels of the spinal cord and reduced astrocytic reactivity to below basal levels; LPS-induced activation of spinal microglia (Iba1 staining, dorsal horn) (dorsal horn microglia; listed as amitriptyline): prevented LPS-induced activation of spinal astrocytes and microglia; LPS-induced spinal glial activation (spinal glial cells; listed as amitriptyline): effect was prevented; proportion of mice displaying severe grimace ([1]; intrauterine LPS with amitriptyline vs LPS only, categorical assessment, p=0.043): significantly reduced severe grimace behaviour; clinical use [2]: has been used successfully to treat PMS and depression
CNCCC=C1c2ccccc2CCc2ccccc21 [Nortriptyline]	slight inhibitory effect	slight inhibitory effect						Fold Induction (Human TLR7): slight potentiating effect
CCOC(=O)C1=CCCC[C@H]1S(=O)(=O)Nc1ccc(F)cc1Cl [TAK-242]			prevented LPS-induced activation of spinal astrocytes and microglia	significantly reduce LPS effect	prevented LPS-induced activation of spinal astrocytes and microglia; also recorded: reduced spinal activation of microglia below baseline levels	effect was also prevented; also recorded: block spinal glial activation following intrauterine administration of LPS	reduced grimace scores non-significantly	LPS-induced activation of spinal astrocytes (GFAP staining, dorsal horn) (dorsal horn astrocytes; listed as TAK242): blocked the impact of intrauterine LPS at multiple levels of the spinal cord and reduced astrocytic reactivity to below basal levels; also recorded: blocks the impact of intrauterine LPS at multiple levels of the spinal cord and appears to reduce astrocytic reactivity to below basal levels; LPS-induced activation of spinal microglia (Iba1 staining, dorsal horn) (dorsal horn microglia; listed as TAK242): blocked the impact of intrauterine LPS at multiple levels of the spinal cord and reduced microglia reactivity to basal levels; also recorded: appears to reduce microglia reactivity to basal levels
lipopolysaccharide [LPS]								activation of spinal astrocytes (GFAP staining) (dorsal horn astrocytes; [4]): induced activation of spinal astrocytes and microglia; also recorded: substantial increase in GFAP astrocyte staining throughout multiple levels of the spinal cord; also recorded: induced activation of astrocytes at multiple levels of the spinal levels compared with saline; activation of spinal microglia (Iba1 staining) (dorsal horn microglia; [4]): induced activation of spinal astrocytes and microglia; also recorded: localised increase in Iba1 microglial staining throughout select levels of the spinal cord; also recorded: induced activation of microglia with inconsistent effect across levels; activation of spinal glial cells (spinal glial cells; intra-uterine LPS): activate spinal glial cells, including astrocytes and microglia; Facial Grimace Score ([1]; intrauterine LPS vs saline): caused a significant increase in the presentation of Grimace behaviours in animals
